Where a name gives a salt, the structure may show the parent alone. Read-outs that look alike come from different tables or passages of the source.
What was measured:
[1] = Description: The stability of the pharmaceutical compositions of Example 3 were tested. The stability studies were conducted on packaged epinephrine salts at 25° C./RH 60% and 40° C./RH 75% conditions, as well as samples without packaging and exposed to light (4500 Lux) for one month. The appearance, assay content, and related substances were examined at 5, 7, 14 and 30 days.
(§1) The assay content was tested using Sartorius balances (Model SQP), an INESA pH meter (Model PHS-3E), a Thermo HPLC (UltiMate 3000 System, UV Wavelength: 205 nm), and Phenomenex Luna columns (5 μm C18 (2), 4.6×250 mm). The column temperature was 40° C., and the autosampler temperature was room temperature. The injection volume was 5 μL.
(§2) Mobile Phase A was prepared by weighing 4.0 g tetramethylammonium bisulfate (MERYER, Batch No. 77957139) and 1.1 sodium 1-heptasulfonate (Admas-beta, Batch No. P1343755), and transferring the materials to a flask. 2 mL of 0.1 mol/L EDTA solution (Brand: Sinopharm Chemical Reagent Co., Ltd., Batch No. 20150410) was added to the flask and the volume was adjusted to 950 mL using water. The solution was mixed and adjusted to a pH of 3.5 with 0.1N sodium hydroxide solution (Brand: Enox, Batch No. 20161201). Mobile Phase B was prepared using methanol. The isocratic elution was used in a proportion of A/B of 85/15. The run time was 10 minutes.
The assay content was analyzed by dissolving 20 mg of each sample to be examined in 50 mL of Mobile Phase A (0.4 mg/mL) as assay test solution. The sample was used and tested right after it was ready and was protected from light.
as §1, with “purity” for “assay content”, “PhenomenexSynergi” for “Phenomenex Luna”, “(4” for “(5”, “Polar-RP 80 A 250×4.6” for “C18 (2), 4.6×250”, “30°” for “40°”
Mobile Phase A was prepared by weighing 1.136 g of potassium dihydrogen orthophosphate (Brand: CNW, Batch No. A1040040) and 1.74 g of dipotassium hydrogen orthophosphate (Brand: Ourchem, Batch No. 20160219) and transferring into 1000 mL of water. The pH was adjusted to 3.0±0.05 with orthophosphoric acid (Brand: Ourchem, Batch No. 4112K060). The solution was filtered through a 0.45 μm membrane and degassed. Mobile Phase B was prepared using methanol. The run time was 50 minutes.
The purity was analyzed by dissolving 10 mg of each sample to be examined in 25 mL of Mobile Phase A (0.4 mg/mL) as purity and related substance test solution. The sample was used and tested right after it was ready and was protected from light.

[2] = sublingual tablet of Example 3, 10 mg epinephrine base, receptor pH 7.4, 37° C.
Description: as §1, with “in-vitro permeability of the pharmaceutical compositions of Example 3 were tested. The tests were conducted” for “assay content was tested”, “using drug transdermal diffusion test instruments (Brand Huanghai, Model No. RJY-6B),” for “using”, “C.” for “C.,”
as §2
The in vitro diffusion of epinephrine salts were evaluated using Franz cells with an OD of 20 mm and reservoir volume of 7 mL. Dialysis membranes (Spectra/Por® dialysis membranes with 1,000 Da MWCO) were used to simulate sublingual mucous membrane in the vitro permeability tests. The assay content of the active components was detected in receiving pools. A receptor chamber with a magnetic stirrer was filled with phosphate buffer solution (pH 7.4) as the diffusion medium. The water bath was set at 37° C., and water was circulated in the Franz cells.
Each tablet was placed at the center of the donor chamber on the membrane at T0, and 2 mL of the artificial saliva (Brand: Biomart, Brand No. GL0305) was added to facilitate tablet disintegration and dissolution. Aliquots of 1 mL were withdrawn from the receptor chamber at 10, 30, 60, 90, and 120 min. The volumes withdrawn were replenished with fresh medium. Samples were transferred to HPLC vials for HPLC analysis.

physchem [3] = details: n-octanol / pH 3.47 buffer
Description: (§3) The tests were conducted using Sartorius balances (Model SQP), a Thermo HPLC (UltiMate 3000 System, UV Wavelength: 205 nm), and Phenomenex Luna columns (5 μm C18 (2), 4.6×250 mm). The column temperature was 40° C. and the autosampler temperature was room temperature. The injection volume was 5 μL.
as §2, with “using ethanol.” for “using methanol.”, “was 8” for “was 10”
A hydrogen disodium phosphate solution was prepared by weighing 7.1 g of hydrogen disodium phosphate (Brand: Sinopharm Chemical Reagent Co., Ltd., Batch No. 20150910). A citric acid solution was prepared by weighing 5.25 g of hydrated citric acid (Brand: General-Reagent, Batch No. 5949-29-1) and dissolving it in 1000 mL of water. A pH 3.47 buffer solution was prepared by adjusting the pH of the hydrogen disodium phosphate solution to 3.47 with the citric acid solution. An n-octanol buffer solution was prepared by mixing 100 mL of n-octanol (Brand: Chinasun Specialty Products Co., Ltd., Batch No. 20160601) and 100 mL of the pH 3.47 buffer solution, vibrated for 24 hours, which sat for an hour to separate the n-octanol phase and the pH 3.47 buffer phase.
10 mg of the sample was dissolved in 10 mL of the saturated n-octanol solution and mixed completely. 10 mL of the saturated pH 3.47 buffer solution was added and vortexed at 3000 r/min for 1 hour. 1 mL of solution was pipetted from the n-octanol and pH 3.47 phase after an hour. A standard solution was prepared containing 1 mg/mL of the standard in diluent. An LOQ solution was prepared from about 0.1% of the standard solution. An n-octanol phase solution was diluted with 1 mL of methanol to test. The pH 3.47 phase solution was injected directly. The partition coefficient was calculated using the following formula:
[formula] wherein Co is the equilibrium concentration of solute in oil phase, and Cw is the equilibrium concentration of solute in water phase.

physchem [4] = test: physchem
Description: as §3
as §2, with “using ethanol.” for “using methanol.”, “was 8” for “was 10”
A standard solution was used comprising 10 mg of the standard dissolved in 10 mL of water. The test solution solutions were prepared and water was added at 25±2° C. Every 5 minutes, the solution was sonicated for 30 seconds. The dissolution was observed within 30 minutes to make sure the solution was saturated. The solution was filtered through a 0.45 μm membrane and the solution was diluted to test.

physchem [5] = details: titrated with 0.1 mol/L NaOH
Description: The tests were conducted using Sartorius balances (Model SQP) and a potentiometric titrator (Brand: Methrom, Model No. 905 Titrando). 0.17 g of the sample was weighed and transferred into a 50 mL volumetric flask with the remainder of the volume comprising deonized water. The solution was mixed. The solution was titrated with a 0.1 mol/L NaOH solution using a pH indicator to indicate the end point.

[6] = 20 mg in 20 mL water, 25° C.
Description: The tests were conducted using Sartorius balances (Model SQP) and a pH meter (Brand: INESA, Model No. PHS-3E). 20 mg of the sample was weighed and transferred into a 20 mL volumetric flask with the remainder of the volume comprising water. The solution was mixed. The pH meter was calibrated with pH 4.0 and pH 6.8 standard buffer solutions at 25° C.

[7] = light 4500 Lux, under air, 5 days
[8] = light 4500 Lux, under air, 7 days
[9] = light 4500 Lux, under air, 14 days
[10] = light 4500 Lux, under air, 30 days

Molecule: CNC[C@H](O)c1ccc(O)c(O)c1 [epinephrine base, epinephrine]
- Related substance (%) ([1]; 25° C./60% RH, 0 days): 0.13%
- Content (%) ([1]; 25° C./60% RH, 5 days): 100.03%
- Related substance (%) ([1]; 25° C./60% RH, 5 days): 0.14%
- Content (%) ([1]; 25° C./60% RH, 7 days): 99.73%
- Related substance (%) ([1]; 25° C./60% RH, 7 days): 0.14%
- Content (%) ([1]; 25° C./60% RH, 14 days): 99.84%
- Related substance (%) ([1]; 25° C./60% RH, 14 days): 0.12%
- Content (%) ([1]; 25° C./60% RH, 30 days): 99.78%
- Related substance (%) ([1]; 25° C./60% RH, 30 days): 0.14%
- Related substance (%) ([1]; 40° C./75% RH, 0 days): 0.13%
- Related substance (%) ([1]; 40° C./75% RH, 5 days): 0.16%
- Content (%) ([1]; 40° C./75% RH, 7 days): 100.67%
- Related substance (%) ([1]; 40° C./75% RH, 7 days): 0.15%
- Content (%) ([1]; 40° C./75% RH, 14 days): 98.97%
- Related substance (%) ([1]; 40° C./75% RH, 14 days): 0.17%
- Content (%) ([1]; 40° C./75% RH, 30 days): 100.62%
- Related substance (%) ([1]; 40° C./75% RH, 30 days): 0.20%
- Related substance (%) ([1]; light 4500 Lux, under air, 0 days): 0.13%
- Content (%) [1, 7]: 100.53%
- Related substance (%) [1, 7]: 0.15%
- Content (%) [1, 8]: 99.27%
- Related substance (%) [1, 8]: 0.18%
- Content (%) [1, 9]: 99.21%
- Related substance (%) [1, 9]: 0.18%
- Content (%) [1, 10]: 98.24%
- Related substance (%) [1, 10]: 0.21%
- Diffusion content (%) 120 min [2]: 10.5%

Molecule: CNC[C@H](O)c1ccc(O)c(O)c1 [epinephrine hydrochloride]
- Diffusion content (%) 120 min ([2]; hydrochloride): 44.0%

Molecule: epinephrine fumarate
- LogP (physchem [3]): −3.00
- Diffusion content (%) 120 min [2]: 54.4%
- Solubility (physchem [4]; water, 25±2° C.): 38.9 mg/mL
- pKa (physchem [5]): 4.28
- pH [6]: 3.77

Molecule: epinephrine hemi sulfate
- Solubility (physchem [4]): 17.7 mg/mL
- pH [6]: 7.14

From patent US11505521B2 (Biothea Pharma, Inc., priority 2018, dated 2022)
